Values quoted from earlier work as cited in EP0851285A1, “Photothermographic recording material coatable from an aqueous medium” (priority 1996, dated 1998).

Conditions: salts B

## O=P(=O)[O-].[Ag+] [silver metaphosphate]
20°C
  Solubility in water at 20°C: 0.32 g/100mL water

## [Ag+].[Ag+].[O]=[W](=[O])([O-])[O-] [silver tungstate]
At 15°C (cell overrides title's 20°C)
  Solubility in water: 0.05 (at 15°C) g/100mL water
